Test results reported in US20250064773A1, “TARGETING ERO1 ALPHA WITH AURONE DERIVATIVES” (West Virginia University Board of Governors on behalf of …, priority 2021, published 2025).
Where two headings read alike, the source gives them in different places.

System: PC-9 non-small cell lung cancer cell line
Assay: MTT viability assay, PC-9
Assay type: cell-based
Conditions: 72 hours
Protocol: We utilized an MTT assay to determine the potency of the compounds for inhibiting cell growth. […] We next asked whether T151742 induced inhibition of cell growth was dependent on ERO1α expression. As shown in FIG. 6C two ERO1α deleted clones in the PC-9 cell line were isolated. Using an MTT assay to determine overall cellar viability, a non-targeted control (scramble), and both ERO1α knockout clones was subjected to treatment with T151742 for 72 hours (See FIG. 6D). […] Though only slight differences were observed between T151742 and EN-460 we tested the effects of these compounds in a clonogenic assay which is a better test for inhibition of self-renewal.
Cell Lines: PC-9 cell line used was obtained from Sigma Aldrich and grown in RPMI 1640 medium with 10% fetal bovine serum and 1% penicillin/streptomycin. HCC4006, U266, MM1.s, and Beas-2B cell lines were obtained from ATCC and cultured in either RPMI 1640 or DMEM with 10% fetal bovine serum and 1% penicillin/streptomycin. All cell lines were also checked for mycoplasma every six months and subjected to short tandem repeat (STR) analysis for cell line validation. CRISPR Cas9: CRISPR Guide RNA 2 targeting ERO1α and CRISPR Guide RNA 4 were purchased from Genscript in the pLentiCRISPR V2 plasmid containing puromycin/ampicillin selection marker. Lentivirus was made from HEK 293T cells by co-transfection with GuideRNA of interest, pVSVG, and pPAX2 plasmids. Lentivirus was collected after 48 hours and concentrated using 40% PEG8000. […] Plate was then read on the BioTek Cytation 5 at 530/590 nm. […] Plate was then read at 570 nm. Treated wells were all compared to DMSO control wells to calculate percent growth inhibition and the IC50 was calculated using GraphPad (log(inhibitor) vs growth inhibition). […] Images were then quantified using ImageJ. […] Cells were aliquoted at 1 million cells per PCR tube in PBS and heated in Bio-Rad T100 thermal cycler at indicated temperatures (RT, 46° C., 48° C., 50° C., 52° C., 54° C., 56°, 58° C., and 60° C.) for 3 minutes and aggregation temperature was determined by western blot analysis. […]

CN(C)c1ccc(/C=C2\Oc3cc(O)ccc3C2=O)cc1 [Compound T151742]
IC50 (read-out: IC50, MTT assay, PC-9): 14.1 ± 3.99 µM | IC50 (non-targeted control (scramble), read-out: IC50, MTT assay, PC-9 WT): 14.1 µM
